Assay results reported in PubChem BioAssay AID256 (DTP/NCI, 2004).
“And” between values parts separate entries of the source, which are not always exact repeats. Equal entries are not always repeated. Toxic doses and inconclusive results are not listed. The calls were made as follows: active = survival T/C of 150% or more; inactive = T/C below 125% in these data.

System: CD2F1 mice, L1210 leukemia ip, survival T/C
Assay: NCI In Vivo Anticancer Drug Screen. Data for tumor model L1210 Leukemia (intraperitoneal) in CD2F1 (CDF1) mice
Details: endpoint: mean survival time, higher = longer survival
Procedure, shortened: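 In this screen, transplantable tumors were grown in mice given either the compound or its vehicle. Results were expressed as the treated measurement relative to the control measurement.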

[1] = dose: 100.0 mg/kg/injection, schedule: Q04DX003 (ip), vehicle: saline with Tween-80
[2] = dose: 200.0 mg/kg/injection, schedule: Q04DX003 (ip), vehicle: saline with Tween-80
[3] = dose: 100.0 mg/kg/injection, schedule: Q01DX009 (ip), vehicle: saline with Tween-80
[4] = dose: 200.0 mg/kg/injection, schedule: Q01DX009 (ip), vehicle: saline with Tween-80
[5] = dose: 400.0 mg/kg/injection, schedule: Q01DX009 (ip), vehicle: saline with Tween-80
[6] = dose: 400.0 mg/kg/injection, schedule: Q04DX003 (ip), vehicle: saline with Tween-80
[7] = dose: 12.5 mg/kg/injection, schedule: Q01DX005 (ip), vehicle: distilled water + Tween-80
[8] = dose: 25.0 mg/kg/injection, schedule: Q01DX005 (ip), vehicle: distilled water + Tween-80
[9] = dose: 50.0 mg/kg/injection, schedule: Q01DX005 (ip), vehicle: distilled water + Tween-80
[10] = dose: 50.0 mg/kg/injection, schedule: Q01DX009 (ip), vehicle: saline with Tween-80

Measured: T/C

CC1(C)C2CC=C(CCCc3ccccc3)C1C2 (stereo unspecified)
inactive: [1] 98 % of control | [2] 93 % of control

COC(=O)C(CCSC)NC(=O)C(C)NC(=O)OCc1ccccc1 (stereo unspecified)
inactive: [3] 98 % of control | [4] 95 % of control | [5] 95 % of control

CCCC(=O)Nc1ccc([N+](=O)[O-])cc1OC
inactive: [1] 96 % of control | [2] 102 % of control | [6] 104 % of control

Cc1c2ccncc2cc2c1[nH]c1ccccc12
inactive: dose: 0.8 mg/kg/injection, schedule: Q03HX008 (iv), vehicle: saline 97 % of control | dose: 1.6 mg/kg/injection, schedule: Q03HX008 (iv), vehicle: saline 97 % of control | dose: 1.6 mg/kg/injection, schedule: Q06HX004 (iv), vehicle: saline 97 % of control | dose: 3.2 mg/kg/injection, schedule: Q06HX004 (iv), vehicle: saline 93 % of control | dose: 3.21 mg/kg/injection, schedule: Q#A X002 (iv), vehicle: saline 95 % of control | dose: 6.3 mg/kg/injection, schedule: Q06HX004 (iv), vehicle: saline 97 % of control | dose: 6.31 mg/kg/injection, schedule: Q#A X002 (iv), vehicle: saline 101 % of control | dose: 12.5 mg/kg/injection, schedule: Q01DX001 (iv), vehicle: saline 95 % of control | dose: 12.51 mg/kg/injection, schedule: Q#A X002 (iv), vehicle: saline 100 % of control | dose: 25.0 mg/kg/injection, schedule: Q01DX001 (iv), vehicle: saline 98 % of control | dose: 25.1 mg/kg/injection, schedule: Q#A X002 (iv), vehicle: saline 101 % of control

CCCCCCCC(=O)/C=C/Sc1n[nH]c(=O)[nH]c1=O
inactive: [7] 94 % of control | [8] 102 % of control | [9] 107 % of control

Nc1ccc(N=Nc2cccnc2)cc1
inactive: dose: 100.0 mg/kg/injection, schedule: Q04DX002 (ip), vehicle: other 103 % of control | dose: 200.0 mg/kg/injection, schedule: Q04DX002 (ip), vehicle: other 88 % of control

CCC(O)C(C)[N+](=O)[O-] (stereo unspecified)
inactive: [10] 95 % of control | [3] 102 % of control | [4] 95 % of control

O=[N+]([O-])O.O=[N+]([O-])O.[NH-]C(c1ccccc1)C([NH-])c1ccccc1.[Pt+2] (stereo unspecified)
active: dose: 6.25 mg/kg/injection, schedule: Q04DX003 (ip), vehicle: saline 168 % of control | dose: 12.5 mg/kg/injection, schedule: Q04DX003 (ip), vehicle: saline with Tween-80 158 % of control | dose: 12.5 mg/kg/injection, schedule: Q04DX003 (ip), vehicle: saline 189 % of control | dose: 25.0 mg/kg/injection, schedule: Q04DX003 (ip), vehicle: saline with Tween-80 168 % of control | dose: 25.0 mg/kg/injection, schedule: Q04DX003 (ip), vehicle: saline 195 % of control

Nc1ncnc2c1nc(N1CCCCC1)n2C1OC(CO)C(O)C1O (stereo unspecified)
inactive: [7] 92 % of control and 98 % of control | [8] 103 % of control and 97 % of control | [9] 99 % of control and 98 % of control | dose: 100.0 mg/kg/injection, schedule: Q01DX005 (ip), vehicle: distilled water + Tween-80 101 % of control and 100 % of control | dose: 200.0 mg/kg/injection, schedule: Q01DX005 (ip), vehicle: distilled water + Tween-80 97 % of control and 100 % of control

S=C(Nc1ccccc1)N1CCCC1
inactive: [10] 96 % of control | [3] 100 % of control | [4] 102 % of control

O=C1CCC(=O)N1CCC1=NCCc2cc(OCc3ccccc3)ccc21
inactive: [3] 101 % of control | [1] 102 % of control | [4] 94 % of control | [2] 94 % of control | [5] 97 % of control | [6] 90 % of control
